Patent US5463071A, “5-membered heterocyclic compounds, processes for preparing them and pharmaceutical compositions containing these compounds” (Dr. Karl Thomae GmbH, priority 1991, dated 1995)
Where a name gives a salt, the structure may show the parent alone.

Columns and labels:
[1] = tested on: collagen-induced platelet aggregation in platelet-rich plasma; experiment: Antithrombotic activity: inhibition of collagen-induced thrombocyte (platelet) aggregation, Born and Cross method; format: cell-based, healthy volunteers (human); conditions: Homo sapiens, 10 minutes preincubation at 37° C.
Experimental: 2. Antithrombotic activity Method The thrombocyte aggregation is measured using the Born and Cross method (J. Physiol. 170: 397 (1964)) in platelet-rich plasma taken from healthy volunteers. To inhibit coagulation the blood is mixed with 3.14% sodium citrate in a ratio by volume of 1:10. Collagen-induced aggregation The pattern of the decrease in optical density of the platelet suspension is photometrically measured and recorded after the addition of the aggregation-triggering substance. The rate of aggregation is concluded from the angle of inclination of the density curve. The point on the curve where there is maximum light transmittance is used to calculate the optical density. The amount of collagen used is as small as possible but sufficient to produce an irreversible reaction curve. Standard commercial collagen produced by Hormonchemie of Munich is used. Before the addition of the collagen the plasma is incubated for 10 minutes with the substance at 37° C. From the measurements obtained an EC50 is determined graphically, indicating a 50% change in the optical density in terms of the inhibition of aggregation.

human thrombocytes = experiment: Fibrinogen binding to human thrombocytes (125I fibrinogen, gel-filtered platelets); conditions: ADP, 20 minutes at ambient temperature, read-out: Fibrinogen-binding test IC50
Experimental: 1. Fibrinogen binding to human thrombocytes The blood obtained by puncturing an antecubital vein is anticoagulated with trisodium citrate (final concentration: 13 mM) and centrifuged for 10 minutes at 170×g. The supernatant platelet-rich plasma is poured onto a Sepharose 2B column (Pharmacia) and eluted with a solution of 90 mM common salt, 14 mM trisodium citrate, 5 mM glucose and 50 mM Tris(hydroxymethyl)aminomethane, adjusted to pH 7.4. The gel-filtered platelets (GFP) appearing before the plasma proteins are used for the binding experiments. 50 μl of a 60 mM calcium chloride solution, 50 μl of a 0.6 mM adenosine diphosphate solution, 100 μl of substance solution or solvent and 50 μl of fibrinogen solution (containing 3 μg of ^125 I fibrinogen) are added to 750 μl of GFP and incubated for 20 minutes at ambient temperature. The non-specific binding is determined in the presence of 3 mg/ml of cold fibrinogen. 900 μof the incubated material are carefully pipetted onto 250 μof silicon oil (AP 38: AR 20, 1:2 v/v, Wacker Chemie) in Eppendorf tubes and centrifuged for 2 minutes at 10,000×g. The aqueous supernatant and part of the oil are drawn off, the tips of the tubes are cut off together with the platelet pellet and the quantity of bound fibrinogen is determined in a gamma counter. The concentration of substance which brings about a 50% inhibition in fibrinogen binding is determined from a series of concentrations and is given as the IC50 value.

[2] = Tolerance after intravenous administration to mice; format: in vivo; conditions: 30 mg/kg intravenous, three mice each

Structure (SMILES) | EC50 [1] | IC50 (human thrombocytes) | deaths after intravenous administration [2]
COC(=O)c1cc(CCC(=O)O)oc1-c1ccc(-c2ccc(C(=N)N)cc2)cc1 [1(127), 2-(4-amidino-4'-biphenyl)-5-(2-carboxy-ethyl)-3-methoxycarbonyl-furan] | 14 µM | 2.5 µM | 
N=C(N)c1ccc(-c2nnc(-c3ccc(CCC(=O)O)cc3)s2)cc1 [1(10), 2-(4-amidino-phenyl)-5-[4-(2-carboxy-ethyl)-phenyl]-1,3,4-thiadiazole] | 9.5 µM | 2 µM | 
Cl.N=C(N)c1ccc(-c2ccc(-n3cnc(CC(N)C(=O)O)c3)nn2)cc1 (stereo not drawn) [1(2), 1-[6-(4-amidino-phenyl)-3-pyridazinyl]-4-(2-amino-2-carboxy-ethyl)-imidazole-hydrochloride] | 0.09 µM | 0.018 µM | no animals died
COC(=O)CCc1cn(-c2ccc(-c3ccc(C(=N)N)cc3)nn2)c2ccccc12 [2(37), 1-[6-(4-amidino-phenyl)-3-pyridazinyl]-3-(2-methoxycarbonyl-ethyl)-indole] | 6.1 µM | 6.2 µM | 
COC(=O)CCc1cn(-c2ccc(-c3ccc(C(=N)N)cc3)nn2)cn1 [Example 2, 1-[6-(4-Amidino-phenyl)-3-pyridazinyl]-4-(2-methoxy-carbonyl-ethyl)-imidazole] | 2.2 µM | 0.51 µM | 
COC(=O)CCc1ccc(-c2nc(-c3ccc(C(=N)N)cc3)n[nH]2)cc1 [2(8), 3-(4-amidino-phenyl)-5-[4-(2-methoxycarbonyl-ethyl)-phenyl]-1,2,4-triazole] | 6.4 µM | 44 µM | 
N=C(N)c1ccc(-c2nnc(-c3ccc(CCC(=O)O)cc3)o2)cc1 [1(9), 2-(4-amidino-phenyl)-5-[4-(2-carboxy-ethyl)-phenyl]-1,3,4-oxadiazole] | 8.5 µM | 4.2 µM | 
N=C(N)c1ccc(-c2n[nH]c(-c3ccc(CCC(=O)O)cc3)n2)cc1 [1(8), 3-(4-amidino-phenyl)-5-[4-(2-carboxy-ethyl)-phenyl]-1,2,4-triazole] | 4.1 µM | 0.46 µM | 
COC(=O)CCc1ccc(-n2nnc(-c3ccc(C(=N)N)cc3)n2)cc1 [2(3), 5-(4-amidino-phenyl)-2-[4-(2-methoxycarbonyl-ethyl)-phenyl]-tetrazole-hydrochloride] | 1.6 µM | 0.14 µM | 
COC(=O)CCc1ccc(-c2nc(-c3ccc(C(=N)N)cc3)cs2)cc1 [2(5), 4-(4-amidino-phenyl)-2-[4-(2-methoxycarbonyl-ethyl)-phenyl]-thiazole-hydrochloride] | 7.5 µM | 3.1 µM | 
COC(=O)CCc1cc(C(=O)OC)c(-c2ccc(-c3ccc(C(=N)N)cc3)cc2)o1 [2(126), 2-(4-amidino-4'-biphenylyl)-3-methoxycarbonyl-5-(2-methoxycarbonyl-ethyl)-furan-hydrochloride] | 22 µM | 1.4 µM | 
COC(=O)CCc1ccc(-c2nc(-c3ccc(C(=N)NC(=O)OC)cc3)c[nH]2)cc1 [4(2), 4-(4-methoxycarbonylamidino-phenyl)-2-[4-(2-methoxycarbonyl-ethyl)-phenyl]-imidazole] |  | 1.8 µM | 
N=C(N)c1ccc(-c2ccc(-n3cnc(CC(C(=O)O)N(Cc4ccccc4)Cc4ccccc4)c3)nn2)cc1 (stereo not drawn) [1(35), 1-[6-(4-amidino-phenyl)-3-pyridazinyl]-4-(2-carboxy-2-dibenzylamino-ethyl)-imidazole] | 6.9 µM | 2.4 µM | 
N=C(N)c1ccc(-c2nnn(-c3ccc(CCC(=O)O)cc3)n2)cc1 [1(3), 5-(4-amidino-phenyl)-2-[4-(2-carboxy-ethyl)-phenyl]-tetrazole] | 11 µM | 0.22 µM | 
N=C(N)c1ccc(-c2ccc(-n3cnc(CCC(=O)O)c3)nn2)cc1 [Example 1] | 0.13 µM | 0.073 µM | no animals died
N=C(N)c1ccc(-c2ccc(-c3oc(CCC(=O)O)cc3C(=O)O)cc2)cc1 [1(128), 2-(4-amidino-4'-biphenyl)-3-carboxy-5-(2-carboxy-ethyl)-furan] | 9 µM | 3.5 µM | 
COC(=O)CCc1ccc(-c2nc(-c3ccc(C(=N)NC(=O)OC)cc3)cn2C)cc1 [4(1), 4-(4-methoxycarbonylamidino-phenyl)-2-[4-(2-methoxycarbonyl-ethyl)-phenyl]-1-methyl-imidazole] |  | 1.5 µM | 
N=C(N)c1ccc(-c2ccc(-n3cc(CCC(=O)O)c4ccccc43)nn2)cc1 [1(37), 1-[6-(4-amidino-phenyl)-3-pyridazinyl]-3-(2-carboxy-ethyl)-indole] | 2.4 µM | 0.15 µM | 
COC(=O)CSc1nc(-c2ccc(-c3ccc(C(=N)N)cc3)cc2)n[nH]1 [2(39), 3-(4-amidino-4'-biphenylyl)-5-methoxycarbonyl-methylthio-1,2,4-triazole] | 5.4 µM |  | 
N=C(N)c1ccc(-c2ccc(-c3n[nH]c(SCC(=O)O)n3)cc2)cc1 [1(39), 3-(4-amidino-4'-biphenylyl)-5-carboxymethylthio-1,2,4-triazole] | 3.7 µM | 0.039 µM | 

Further lines, with some results ahead:

EC50 [1] | IC50 (human thrombocytes) | Structure (SMILES) | deaths after intravenous administration [2]
0.18 µM |  | COC(=O)C(O)Cc1cn(-c2ccc(-c3ccc(C(=N)N)cc3)nn2)cn1 (stereo not drawn) [2(1), 1-[6-(4-amidino-phenyl)-3-pyridazinyl]-4-(2-hydroxy-2-methoxycarbonyl-ethyl)-imidazole] | 
0.28 µM | 4.9 µM | COC(=O)CCc1nnc(-c2ccc(-c3ccc(C(=N)N)cc3)cc2)s1 [2(20), 2-(4-amidino-4'-biphenylyl)-5-(2-methoxycarbonyl-ethyl)-1,3,4-thiadiazole] | 
0.37 µM | 0.49 µM | COC(=O)CCn1nnc(-c2ccc(-c3ccc(C(=N)N)cc3)cc2)n1 [2(4), 5-(4-amidino-4'-biphenylyl)-2-(2-methoxycarbonyl-ethyl)-tetrazole-hydrochloride] | 
0.29 µM | 0.044 µM | N=C(N)c1ccc(-c2ccc(-c3nnn(CCC(=O)O)n3)cc2)cc1 [1(4), 5-(4-amidino-4'-biphenylyl)-2-(2-carboxy-ethyl)-tetrazole] | 
0.35 µM | 0.34 µM | COC(=O)C(N)Cc1cn(-c2ccc(-c3ccc(C(=N)N)cc3)nn2)cn1 (stereo not drawn) [2(2), 1-[6-(4-amidino-phenyl)-3-pyridazinyl]-4-(2-amino-2-methoxycarbonyl-ethyl)-imidazole-tris-trifluoroacetate] | 
0.09 µM | 0.038 µM | N=C(N)c1ccc(-c2ccc(-n3cnc(CC(O)C(=O)O)c3)nn2)cc1 (stereo not drawn) [1(1), 1-[-6-(4-amidinophenyl)-3-pyridazinyl]-4-(2-carboxy-2-hydroxy-ethyl)-imidazole] | 
0.09 µM | 0.025 µM | Cn1cc(-c2ccc(C(=N)N)cc2)nc1-c1ccc(CCC(=O)O)cc1 [1(6), 4-(4-amidino-phenyl)-2-[4-(2-carboxy-ethyl)-phenyl]-1-methyl-imidazole] | 
0.29 µM | 0.065 µM | N=C(N)c1ccc(-c2ccc(-c3nnc(CCC(=O)O)s3)cc2)cc1 [1(20), 2-(4-amidino-4'-biphenylyl)-5-(2-carboxy-ethyl)-1,3,4-thiadiazole] | 
0.21 µM | 4.3 µM | COC(=O)CCc1ccc(-c2nc(-c3ccc(C(=N)N)cc3)cn2C)cc1 [2(6), 4-(4-amidino-phenyl)-2-[4-(2-methoxycarbonyl-ethyl)-phenyl]-1-methyl-imidazole-hydrochloride] | 
0.51 µM | 0.46 µM | NCc1ccc(-c2ccc(-n3cnc(CC(N)C(=O)O)c3)nn2)cc1 (stereo not drawn) [1(134), 4-(2-amino-2-carboxy-ethyl)-1-[6-(4-aminomethyl-phenyl)-3-pyridazinyl]-imidazole-dihydrochloride] | 
0.22 µM |  | COC(=O)CCc1ccc(-c2nnc(-c3ccc(C(=N)N)cc3)s2)cc1 [2(10), 2-(4-amidino-phenyl)-5-[4-(2-methoxycarbonyl-ethyl)-phenyl]-1,3,4-thiadiazole] | 
0.8 µM | 17 µM | COC(=O)CCc1ccc(-c2nc(-c3ccc(C(=N)N)cc3)c[nH]2)cc1 [2(7), 4-(4-amidino-phenyl)-2-[4-(2-methoxycarbonyl-ethyl)-phenyl]-imidazole-hydrochloride] | 
0.58 µM | 0.21 µM | N=C(N)c1ccc(-c2c[nH]c(-c3ccc(CCC(=O)O)cc3)n2)cc1 [1(7), 4-(4-amidino-phenyl)-2-[4-(2-carboxy-ethyl)-phenyl]-imidazole] | 
